Results taken from PubChem BioAssay AID248 (DTP/NCI, 2004).
“And” between values parts separate entries of the source, which are not always exact repeats. Equal values may be shown once. Inconclusive results and toxic doses are left out.

System: L1210 leukemia ip in BDF1 mice, survival T/C
Test: NCI In Vivo Anticancer Drug Screen. Data for tumor model L1210 Leukemia (intraperitoneal) in B6D2F1 (BDF1) mice
Conditions: endpoint: mean survival time, higher = longer survival
Summary of the method: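 In this screen, tumor-bearing mice given compound are compared to those given vehicle, and their survival values are reported as a treated-to-control quotient.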

[1] = dose: 100.0 mg/kg/injection, schedule: Q04DX002 (ip), vehicle: Klucel (hydroxypropylcellulose) (HPC)
[2] = dose: 200.0 mg/kg/injection, schedule: Q04DX002 (ip), vehicle: Klucel (hydroxypropylcellulose) (HPC)
[3] = dose: 400.0 mg/kg/injection, schedule: Q04DX002 (ip), vehicle: Klucel (hydroxypropylcellulose) (HPC)
[4] = dose: 100.0 mg/kg/injection, schedule: Q01DX001 (ip), vehicle: saline
[5] = dose: 200.0 mg/kg/injection, schedule: Q01DX001 (ip), vehicle: saline
[6] = dose: 400.0 mg/kg/injection, schedule: Q01DX001 (ip), vehicle: saline
[7] = dose: 25.0 mg/kg/injection, schedule: Q01DX009 (ip), vehicle: saline
[8] = dose: 50.0 mg/kg/injection, schedule: Q01DX009 (ip), vehicle: saline
[9] = dose: 100.0 mg/kg/injection, schedule: Q01DX009 (ip), vehicle: saline
[10] = dose: 100.0 mg/kg/injection, schedule: Q04DX002 (ip), vehicle: saline
[11] = dose: 50.0 mg/kg/injection, schedule: Q01DX001 (ip), vehicle: saline
[12] = dose: 6.25 mg/kg/injection, schedule: Q01DX009 (ip), vehicle: saline
[13] = dose: 12.5 mg/kg/injection, schedule: Q01DX009 (ip), vehicle: saline
[14] = dose: 50.0 mg/kg/injection, schedule: Q01DX009 (ip), vehicle: saline with Tween-80
[15] = dose: 100.0 mg/kg/injection, schedule: Q04DX003 (ip), vehicle: saline with Tween-80

With N#CCC1COc2ccccc2O1 (centres undefined) the T/C (dose: 100.0 mg/kg/injection, schedule: Q01DX001 (ip), vehicle: carboxymethylcellulose (CMC)) was 92 % of control, the T/C (dose: 200.0 mg/kg/injection, schedule: Q01DX001 (ip), vehicle: carboxymethylcellulose (CMC)) was 97 % of control and the T/C (dose: 400.0 mg/kg/injection, schedule: Q01DX001 (ip), vehicle: carboxymethylcellulose (CMC)) was 100 % of control.

For OC(c1ccccc1)C1(O)CC2CCC1C2 (centres undefined), the T/C (dose: 6.25 mg/kg/injection, schedule: Q01DX001 (ip), vehicle: saline) was 96 % of control, the T/C (dose: 125.0 mg/kg/injection, schedule: Q01DX001 (ip), vehicle: saline) was 100 % of control and the T/C (dose: 250.0 mg/kg/injection, schedule: Q01DX001 (ip), vehicle: saline) was 98 % of control.

CCOC(=O)CNc1ccc(F)c(F)c1 was tested, and the T/C [1] was 97 % of control, the T/C [2] was 90 % of control and the T/C [3] was 103 % of control.

With CC(C)OP(=O)(NO)OC(C)C the T/C [4] was 97 % of control, the T/C [5] was 92 % of control and the T/C [6] was 90 % of control.

In the case of CC(C)(C)OC(=O)NC(CC(N)=O)C(=O)ON1C(=O)CCC1=O (centres undefined), the T/C [7] is reported as 95 % of control, the T/C [8] is reported as 99 % of control and the T/C [9] is reported as 86 % of control. For the same compound, the T/C [10] was 108 % of control, the T/C (dose: 200.0 mg/kg/injection, schedule: Q01DX009 (ip), vehicle: saline) was 94 % of control and 99 % of control and the T/C (dose: 200.0 mg/kg/injection, schedule: Q04DX002 (ip), vehicle: saline) was 86 % of control. For the same compound, the T/C (dose: 400.0 mg/kg/injection, schedule: Q01DX009 (ip), vehicle: saline) was 105 % of control and the T/C (dose: 400.0 mg/kg/injection, schedule: Q04DX002 (ip), vehicle: saline) was 105 % of control.

Cc1ccc(CCn2cnc3c(=S)nc[nH]c32)cc1 was tested, and the T/C [11] was 98 % of control, the T/C [4] was 93 % of control and the T/C [5] was 104 % of control. The T/C [6] was 93 % of control.

With CCOC(OCC)c1nc(N)c2cnn(C)c2n1 the T/C [12] was 89 % of control, the T/C [13] was 97 % of control and the T/C [7] was 106 % of control and 110 % of control. The T/C [8] was 94 % of control and the T/C [10] was 112 % of control.

For O=C1C=C(Nc2ccc([N+](=O)[O-])cc2)C(=O)c2ccccc21, the T/C (dose: 75.0 mg/kg/injection, schedule: Q01DX001 (ip), vehicle: carboxymethylcellulose (CMC)) was 87 % of control and the T/C (dose: 300.0 mg/kg/injection, schedule: Q01DX001 (ip), vehicle: carboxymethylcellulose (CMC)) was 89 % of control.

CCOc1cccc2c1OC(COS(=O)(=O)c1ccc(C)cc1)CO2 (centres undefined) was tested, and the T/C [4] was 95 % of control, the T/C [5] was 95 % of control and the T/C [6] was 95 % of control.

In the case of COc1cc2c(cc1OC)/C(=N/N)CCC2, the T/C (dose: 50.0 mg/kg/injection, schedule: Q04DX003 (ip), vehicle: Klucel (hydroxypropylcellulose) (HPC)) is reported as 95 % of control.

COc1cc(C(=O)N2CCN(c3ccccc3)CC2)c2ccccc2n1 was tested, and the T/C (dose: 100.0 mg/kg/injection, schedule: Q01DX001 (ip), vehicle: other) was 98 % of control, the T/C (dose: 200.0 mg/kg/injection, schedule: Q01DX001 (ip), vehicle: other) was 112 % of control and the T/C (dose: 400.0 mg/kg/injection, schedule: Q01DX001 (ip), vehicle: other) was 101 % of control.

With CCCCCCCCCCCCCCCCc1c(C)ncn(C)c1=O the T/C (dose: 100.0 mg/kg/injection, schedule: Q04DX003 (ip), vehicle: Klucel (hydroxypropylcellulose) (HPC)) was 98 % of control, the T/C (dose: 200.0 mg/kg/injection, schedule: Q04DX003 (ip), vehicle: Klucel (hydroxypropylcellulose) (HPC)) was 101 % of control and the T/C (dose: 400.0 mg/kg/injection, schedule: Q04DX003 (ip), vehicle: Klucel (hydroxypropylcellulose) (HPC)) was 95 % of control.

In the case of CC(C)=CC[P+](c1ccccc1)(c1ccccc1)c1ccccc1, the T/C (dose: 3.13 mg/kg/injection, schedule: Q01DX009 (ip), vehicle: saline) is reported as 111 % of control, the T/C [12] is reported as 106 % of control and the T/C [13] is reported as 100 % of control and 106 % of control. For the same compound, the T/C (dose: 25.0 mg/kg/injection, schedule: Q01DX001 (ip), vehicle: saline) was 102 % of control, the T/C [7] was 98 % of control and the T/C [11] was 90 % of control. For the same compound, the T/C [8] was 98 % of control and 90 % of control.

With COC1=CC2C3=CC(C)C4C(=O)OC(=O)C4C3C1C1C(=O)OC(=O)C21 (centres undefined) the T/C [14] was 105 % of control and the T/C (dose: 100.0 mg/kg/injection, schedule: Q01DX009 (ip), vehicle: saline with Tween-80) was 94 % of control.

C=C1c2ccccc2N(CC)C1(COc1ccc(Cl)cc1)OC(=O)c1cccc(Cl)c1 (centres undefined) was tested, and the T/C [1] was 100 % of control, the T/C [2] was 95 % of control and the T/C [3] was 110 % of control.

N=C(N)c1ccc(C(=O)Oc2ccc([N+](=O)[O-])cc2)cc1 was tested, and the T/C (dose: 25.0 mg/kg/injection, schedule: Q01DX009 (ip), vehicle: saline with Tween-80) was 103 % of control, the T/C (dose: 25.0 mg/kg/injection, schedule: Q04DX003 (ip), vehicle: saline with Tween-80) was 94 % of control and the T/C [14] was 97 % of control. For the same compound, the T/C (dose: 50.0 mg/kg/injection, schedule: Q04DX003 (ip), vehicle: saline with Tween-80) was 97 % of control and the T/C [15] was 98 % of control and 92 % of control.

With Cc1c2c(c(C)c3ccncc13)S(=O)(=O)c1ccccc1-2 the T/C (dose: 75.0 mg/kg/injection, schedule: Q01DX001 (ip), vehicle: other) was 95 % of control, the T/C (dose: 150.0 mg/kg/injection, schedule: Q01DX001 (ip), vehicle: other) was 93 % of control and the T/C (dose: 300.0 mg/kg/injection, schedule: Q01DX001 (ip), vehicle: other) was 93 % of control.

For CCOC(=O)/C(C#N)=C\c1ccc(OCC)c(OCC)c1, the T/C (dose: 100.0 mg/kg/injection, schedule: Q01DX Z (ip), vehicle: methylcellulose (MC)) was 101 % of control and the T/C (dose: 200.0 mg/kg/injection, schedule: Q01DX Z (ip), vehicle: methylcellulose (MC)) was 100 % of control.

With C[P+]1(C)CC2OC23CCCCC31 (centres undefined) the T/C [13] was 98 % of control, the T/C [7] was 93 % of control and the T/C [8] was 94 % of control. For the same compound, the T/C [9] was 96 % of control.

With Nc1ccc(C(=O)O)c(F)c1 the T/C [1] was 101 % of control, the T/C [2] was 104 % of control and the T/C [3] was 101 % of control.

For COS(=O)(=O)CCC[n+]1ccccc1, the T/C [11] was 98 % of control, the T/C [4] was 96 % of control and the T/C [5] was 96 % of control.

In the case of O=C(O)CCCCCCCCC(=O)c1cc(O)ccc1O, the T/C (dose: 100.0 mg/kg/injection, schedule: Q01DX001 (ip), vehicle: Klucel (hydroxypropylcellulose) (HPC)) is reported as 94 % of control, the T/C (dose: 200.0 mg/kg/injection, schedule: Q01DX001 (ip), vehicle: Klucel (hydroxypropylcellulose) (HPC)) is reported as 94 % of control and the T/C (dose: 400.0 mg/kg/injection, schedule: Q01DX001 (ip), vehicle: Klucel (hydroxypropylcellulose) (HPC)) is reported as 106 % of control.

Nc1ccn([C@@H](C=O)O[C@@H](C=O)CO)c(=O)n1 was tested, and the T/C (dose: 35.0 mg/kg/injection, schedule: Q01DX009 (ip), vehicle: water) was 111 % of control, the T/C (dose: 35.0 mg/kg/injection, schedule: Q01DX Z (ip), vehicle: water) was 107 % of control and the T/C (dose: 70.0 mg/kg/injection, schedule: Q01DX009 (ip), vehicle: water) was 122 % of control. For the same compound, the T/C (dose: 70.0 mg/kg/injection, schedule: Q01DX Z (ip), vehicle: water) was 123 % of control and the T/C (dose: 140.0 mg/kg/injection, schedule: Q01DX009 (ip), vehicle: water) was 161 % of control.

With CN=C([Se])NC the T/C (dose: 3.13 mg/kg/injection, schedule: Q01DX009 (ip), vehicle: saline with Tween-80) was 106 % of control, the T/C (dose: 3.13 mg/kg/injection, schedule: Q04DX002 (ip), vehicle: saline with Tween-80) was 98 % of control and the T/C (dose: 6.25 mg/kg/injection, schedule: Q01DX009 (ip), vehicle: saline with Tween-80) was 103 % of control. The T/C (dose: 6.25 mg/kg/injection, schedule: Q04DX002 (ip), vehicle: saline with Tween-80) was 95 % of control, the T/C (dose: 12.5 mg/kg/injection, schedule: Q01DX009 (ip), vehicle: saline with Tween-80) was 97 % of control and the T/C (dose: 12.5 mg/kg/injection, schedule: Q04DX002 (ip), vehicle: saline with Tween-80) was 87 % of control.

With COc1cc(CC2c3cc(OC)c(OC)cc3CCN2C)c(Oc2cc3c(cc2OC)-c2c(OC)c(OC)c(OC)c4c2C(C3)N(C)CC4)cc1OC (centres undefined) the T/C [15] was 97 % of control and the T/C (dose: 200.0 mg/kg/injection, schedule: Q04DX003 (ip), vehicle: saline with Tween-80) was 97 % of control.
